Assay results taken from the OligoGym collection.
HELM strings list units from the 5' end as sugar, base in round brackets, then linkage (d deoxyribose, r ribose, m 2'-O-methyl, p phosphodiester). [sp] = phosphorothioate linkage

How the values were obtained:
CTNNB1 [1] = assay: HEK293-TLR8, 100 nM ASO, then resiquimod
CTNNB1 [2] = assay: HEK293-TLR7, 100 nM ASO, then resiquimod

Substance | TLR8 potentiation (NF-kB luciferase) (fold of resiquimod alone) (CTNNB1 [1]) | TLR7 signal (NF-kB luciferase) (% of resiquimod alone) (CTNNB1 [2])
RNA1{m(U)[sp].m(G)[sp].m(C)[sp].m(U)[sp].m(U)[sp].d(A)[sp].d(T)[sp].d(T)[sp].d(T)[sp].d(T)[sp].d(A)[sp].d(A)[sp].d(G)[sp].d(C)[sp].d(A)[sp].m(U)[sp].m(A)[sp].m(U)[sp].m(U)[sp].m(A)}$$$$ | 2.73 | 66.4
RNA1{m(U)[sp].m(G)[sp].m(G)[sp].m(C)[sp].m(A)[sp].d(G)[sp].d(G)[sp].d(C)[sp].d(T)[sp].d(C)[sp].d(A)[sp].d(G)[sp].d(T)[sp].d(G)[sp].d(A)[sp].m(U)[sp].m(G)[sp].m(U)[sp].m(C)[sp].m(U)}$$$$ | 1.73 | 50.4
RNA1{m(U)[sp].m(G)[sp].m(U)[sp].m(G)[sp].m(G)[sp].d(C)[sp].d(T)[sp].d(T)[sp].d(G)[sp].d(T)[sp].d(C)[sp].d(C)[sp].d(T)[sp].d(C)[sp].d(A)[sp].m(G)[sp].m(A)[sp].m(C)[sp].m(A)[sp].m(U)}$$$$ | 1.57 | 47.1
RNA1{m(U)[sp].m(U)[sp].m(A)[sp].m(U)[sp].m(U)[sp].d(T)[sp].d(T)[sp].d(A)[sp].d(A)[sp].d(G)[sp].d(C)[sp].d(A)[sp].d(T)[sp].d(A)[sp].d(T)[sp].m(U)[sp].m(A)[sp].m(A)[sp].m(A)[sp].m(A)}$$$$ | 2.97 | 41.5
RNA1{m(U)[sp].m(U)[sp].m(C)[sp].m(A)[sp].m(A)[sp].d(T)[sp].d(G)[sp].d(G)[sp].d(G)[sp].d(A)[sp].d(G)[sp].d(A)[sp].d(A)[sp].d(T)[sp].d(A)[sp].m(A)[sp].m(A)[sp].m(G)[sp].m(C)[sp].m(A)}$$$$ | 3.03 | 32.9
RNA1{m(U)[sp].m(U)[sp].m(C)[sp].m(U)[sp].m(G)[sp].d(C)[sp].d(A)[sp].d(G)[sp].d(C)[sp].d(T)[sp].d(T)[sp].d(C)[sp].d(C)[sp].d(T)[sp].d(T)[sp].m(G)[sp].m(U)[sp].m(C)[sp].m(C)[sp].m(U)}$$$$ | 4.06 | 42.7
RNA1{m(U)[sp].m(U)[sp].m(U)[sp].m(A)[sp].m(U)[sp].d(T)[sp].d(C)[sp].d(A)[sp].d(G)[sp].d(A)[sp].d(T)[sp].d(T)[sp].d(A)[sp].d(C)[sp].d(A)[sp].m(A)[sp].m(U)[sp].m(U)[sp].m(A)[sp].m(A)}$$$$ | 3.68 | 53.4
RNA1{m(U)[sp].m(U)[sp].m(U)[sp].m(U)[sp].m(A)[sp].d(A)[sp].d(G)[sp].d(C)[sp].d(A)[sp].d(T)[sp].d(A)[sp].d(T)[sp].d(T)[sp].d(A)[sp].d(A)[sp].m(A)[sp].m(A)[sp].m(A)[sp].m(G)[sp].m(G)}$$$$ | 3.67 | 59.4
